Patent US9656988B2 (Pharmacyclics LLC, priority 2013, dated 2017)
Where two headings read alike, the source gives them in different places.

Molecular target: BTK (Homo sapiens (Human), UniProt Q06187)
Experiment: Btk in vitro inhibitory activity (one of Method A TR-FRET, Method B electrophoretic mobility shift, Method C radiometric filter binding)
Assay type: biochemical
[1] = determined using one of the methods of Example 355a, 355b and 355c, read-out: BTK IC50

Chain of BTK (Q06187 whole entry): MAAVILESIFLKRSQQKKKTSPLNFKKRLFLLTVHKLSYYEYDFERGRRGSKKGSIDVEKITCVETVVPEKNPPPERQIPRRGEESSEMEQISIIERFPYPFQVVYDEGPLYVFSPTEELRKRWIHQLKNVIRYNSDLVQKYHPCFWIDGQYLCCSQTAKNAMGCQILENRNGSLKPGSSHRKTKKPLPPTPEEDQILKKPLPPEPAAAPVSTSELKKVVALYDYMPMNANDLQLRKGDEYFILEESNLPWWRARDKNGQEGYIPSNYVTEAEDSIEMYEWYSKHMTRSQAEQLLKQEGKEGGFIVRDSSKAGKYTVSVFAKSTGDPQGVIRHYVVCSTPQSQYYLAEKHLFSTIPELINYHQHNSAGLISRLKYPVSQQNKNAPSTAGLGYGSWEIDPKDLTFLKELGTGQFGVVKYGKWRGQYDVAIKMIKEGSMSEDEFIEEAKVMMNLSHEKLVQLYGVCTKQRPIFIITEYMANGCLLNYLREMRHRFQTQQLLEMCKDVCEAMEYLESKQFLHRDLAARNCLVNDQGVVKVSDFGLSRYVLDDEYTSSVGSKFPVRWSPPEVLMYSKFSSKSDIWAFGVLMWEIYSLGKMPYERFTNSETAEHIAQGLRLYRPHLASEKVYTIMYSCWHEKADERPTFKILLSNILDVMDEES

SMILES | IC50 [1] [nM] | IC50 (Btk (IC50)) [nM] | IC50 (read-out: Btk (IC50)) [nM] | IC50 [nM]
NC(=O)c1nnc(N2CCC[C@@H](NC(=O)c3nccs3)C2)nc1Nc1ccc(C(=O)N2CCOCC2)cc1 [Example 16, (R)—N-(1-(6-carbamoyl-5-(4-(morpholine-4-carbonyl)phenylamino)-1,2,4-triazin-3-yl)piperidin-3-yl)thiazole-2-carboxamide] | < 10 |  |  | 
NC(=O)c1ncc(N2CCC[C@@H](NC(=O)c3ccc(Cl)s3)C2)nc1Nc1ccc(C2CCN(C3CC3)CC2)cc1 [Example 314, (R)-5-(3-(5-chlorothiophene-2-carboxamido)piperidin-1-yl)-3-(4-(1-cyclopropylpiperidin-4-yl)phenylamino)pyrazine-2-carboxamide] | 10 to 100 |  |  | 
NC(=O)c1nnc(N2CCC[C@@H](NC(=O)N3CCOCC3)C2)nc1Nc1ccc(-c2ncco2)cc1 [Example 59, (R)—N-(1-(6-carbamoyl-5-(4-(oxazol-2-yl)phenylamino)-1,2,4-triazin-3-yl)piperidin-3-yl)morpholine-4-carboxamide] | 10 to 100 |  |  | 
CN(C)C(=O)N1CC[C@@H]2CCN(c3cnc(C(N)=O)c(Nc4ccc(C5CCN(C6CCCC6)CC5)cc4)n3)C[C@@H]21 (racemic) [Example 292, (3aS,7aR)-6-(5-carbamoyl-6-(4-(1-cyclopentylpiperidin-4-yl)phenylamino)pyrazin-2-yl)-N,N-dimethyloctahydro-1H-pyrrolo[2,3-c]pyridine-1-carboxamide] | 10 to 100 | 10 to 100 |  | 
NC(=O)c1nnc(N2CCC[C@@H](NC(=O)c3nc4ccccc4o3)C2)nc1Nc1ccc(C(=O)N2CCOCC2)cc1 [Example 97, (R)—N-(1-(6-carbamoyl-5-(4-(morpholine-4-carbonyl)phenylamino)-1,2,4-triazin-3-yl)piperidin-3-yl)benzo[d]oxazole-2-carboxamide] | 10 to 100 |  | 10 to 100 | 
CN(C)C(=O)N[C@@H]1CCCN(c2cnc(C(N)=O)c(Nc3ccc(C(=O)N4CCCC4)cc3)n2)C1 [Example 195, (R)-5-(3-(3,3-dimethylureido)piperidin-1-yl)-3-(4-(pyrrolidine-1-carbonyl)phenylamino)pyrazine-2-carboxamide] | < 10 |  |  | 
CCN1CCC(c2ccc(Nc3nc(N4CCC[C@@H](NC(=O)c5ccc(OC)cc5)C4)cnc3C(N)=O)cc2)CC1 [Example 132, (R)-3-(4-(1-ethylpiperidin-4-yl)phenylamino)-5-(3-(4-methoxybenzamido)piperidin-1-yl)pyrazine-2-carboxamide] | < 10 |  | < 10 | 
COc1ccc(C(=O)N[C@@H]2CCCN(c3cnc(C(N)=O)c(Nc4ccc5ncccc5c4)n3)C2)cc1 [Example 120, (R)-5-(3-(4-methoxybenzamido)piperidin-1-yl)-3-(quinolin-6-ylamino)pyrazine-2-carboxamide] | 10 to 100 |  | 10 to 100 | 
CN(C)C(=O)N[C@@H]1CCCN(c2cnc(C(N)=O)c(Nc3ccc(C4(C(=O)N(C)C)CC4)cc3)n2)C1 [Example 202, (R)-3-(4-(1-(dimethylcarbamoyl)cyclopropyl)phenylamino)-5-(3-(3,3-dimethylureido)piperidin-1-yl)pyrazine-2-carboxamide] | < 10 |  | < 10 | 
CC1(c2ccc(Nc3nc(N4CCC[C@@H](N5CCN(C6CC6)C5=O)C4)cnc3C(N)=O)cc2)CCN(C2CC2)CC1 [Example 279, (R)-5-(3-(3-cyclopropyl-2-oxoimidazolidin-1-yl)piperidin-1-yl)-3-(4-(1-cyclopropyl-4-methylpiperidin-4-yl)phenylamino)pyrazine-2-carboxamide] |  |  | < 10 | 
CC#CC(=O)N1CCC[C@@H](Nc2nnc(C(N)=O)c(Nc3ccc(S(C)(=O)=O)cc3)n2)C1 [Example 105, (R)-3-(1-but-2-ynoylpiperidin-3-ylamino)-5-(4-(methylsulfonyl)phenylamino)-1,2,4-triazine-6-carboxamide] | < 10 |  |  | 
NC(=O)c1ncc(N2CCC[C@@H](NC(=O)c3ccc4ccccc4c3)C2)nc1Nc1ccc(C2CCN(C3CC3)CC2)cc1 [Example 317, (R)-5-(3-(2-naphthamido)piperidin-1-yl)-3-(4-(1-cyclopropylpiperidin-4-yl)phenylamino)pyrazine-2-carboxamide] | 10 to 100 |  |  | 
CCCn1nnc2cc(C(=O)N[C@@H]3CCCN(c4nnc(C(N)=O)c(Nc5ccc(C(=O)N6CCOCC6)cc5)n4)C3)ccc21 [Example 103, (R)—N-(1-(6-carbamoyl-5-(4-(morpholine-4-carbonyl)phenylamino)-1,2,4-triazin-3-yl)piperidin-3-yl)-1-propyl-1H-benzo[d][1,2,3]triazole-5-carboxamide] | < 10 |  | 10 to 100 | 
CCC(=O)N[C@@H]1CCCN(c2nnc(C(N)=O)c(Nc3ccc(C4CCN(C5CCCC5)CC4)cc3)n2)C1 [Example 330, (R)-5-(4-(1-cyclopentylpiperidin-4-yl)phenylamino)-3-(3-propionamidopiperidin-1-yl)-1,2,4-triazine-6-carboxamide] | < 10 |  | < 10 | 
CN(C)C(=O)N(C)[C@@H]1CCCN(c2cnc(C(N)=O)c(Nc3ccc(C4CCN(S(C)(=O)=O)CC4)cc3)n2)C1 [Example 228, (R)-3-(4-(1-(methylsulfonyl)piperidin-4-yl)phenylamino)-5-(3-(1,3,3-trimethylureido)piperidin-1-yl)pyrazine-2-carboxamide] | 10 to 100 |  |  | 10 to 100
CCOc1ccc(C(=O)N[C@@H]2CCCN(c3cnc(C(N)=O)c(Nc4ccc(C5CCN(C)CC5)cc4)n3)C2)cc1 [Example 169, (R)-5-(3-(4-ethoxybenzamido)piperidin-1-yl)-3-(4-(1-methylpiperidin-4-yl)phenylamino)pyrazine-2-carboxamide] | < 10 |  |  | 
C[C@@H]1[C@H](NC(=O)N(C)C)CCCN1c1cnc(C(N)=O)c(Nc2ccc(C3(C)CCN(C4CCC4)CC3)cc2)n1 [Example 246, 3-(4-(1-cyclobutyl-4-methylpiperidin-4-yl)phenylamino)-5-((2R,3R)-3-(3,3-dimethylureido)-2-methylpiperidin-1-yl)pyrazine-2-carboxamide] | < 10 |  | < 10 | 
CCN1CCC(c2ccc(Nc3nc(N4CCC[C@@H](NC(=O)N(C)C)C4)cnc3C(N)=O)cc2)CC1 [Example 207, (R)-5-(3-(3,3-dimethylureido)piperidin-1-yl)-3-(4-(1-ethylpiperidin-4-yl)phenylamino)pyrazine-2-carboxamide] | 10 to 100 | 10 to 100 |  | 
NC(=O)c1ncc(N2CCC[C@@H]3[C@H]2CCN3C(=O)C2CC2)nc1Nc1ccc(C2CCN(C3CCCC3)CC2)cc1 (racemic) [Example 288, 3-(4-(1-cyclopentylpiperidin-4-yl)phenylamino)-5-((3aR,7aR)-1-(cyclopropanecarbonyl)dihydro-1H-pyrrolo[3,2-b]pyridin-4(2H,5H,6H,7H,7aH)-yl)pyrazine-2-carboxamide] | 10 to 100 |  | 10 to 100 | 
Cc1cc(Nc2cc(N3CCC[C@@H](NC(=O)c4ccc(C(C)(C)C)cc4)C3)cnc2C(N)=O)sn1 [Example 77, (R)-5-(3-(4-tert-butylbenzamido)piperidin-1-yl)-3-(3-methylisothiazol-5-ylamino)picolinamide] | 10 to 100 |  |  | 
COc1ccc(C(=O)N[C@@H]2CCCN(c3cnc(C(N)=O)c(Nc4ccc(C5CCN(C6CC6)CC5)cc4)n3)C2)cc1 [Example 133, (R)-3-(4-(1-cyclopropylpiperidin-4-yl)phenylamino)-5-(3-(4-methoxybenzamido)piperidin-1-yl)pyrazine-2-carboxamide] | < 10 |  | < 10 | 
